Measurements: patent US11440880B2, “Thalidomide analogs and methods of use” (The USA, as represented by the Secretary, Department of …, priority 2015, dated 2022)

Legend:
RAW 264.7 cells = experiment: Cell viability (CellTiter 96 AQueous One) of LPS-challenged RAW 264.7 cells; type: cell-based, mouse; design: key: NS=not significant; a “+” sign=anti-inflammatory or increased cell numbers; a “−” sign=cell toxicity or pro-inflammatory
Summary of the method: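 RAW 264.7 murine macrophages pretreated 1 h with compound or DMSO vehicle, then challenged with LPS (serotype 055:B5) at 30 or 60 ng/mL final for 24 h. After media replacement, viability measured by tetrazolium (MTS) conversion, absorbance at 490 nm, reported as O.D.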

[1] = tested on: mpo:GFP zebrafish embryos (neutrophil migration to the wound site); experiment: mpo:GFP zebrafish fin-clip neutrophil migration (inflammation) assay; type: in vivo; design: mpo:GFP inflammation n (survived/tested): concentration or dose not given beside the values; conditions: for minimal effective concentration: Danio rerio, Neutrophil, lowest concentration producing an effect, compounds not producing an effect shown at the highest evaluated concentration; for mpo:GFP inflammation n (survived/tested): embryos survived/tested at the concentration given
Summary of the method: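 Tg(mpo::EGFP) larvae tail-fin clipped (dorsal third removed) at 72 hpf, then immersed in compound or vehicle. Neutrophils migrating to the wound site counted from images 24 h later; at least 50% reduction scored as anti-inflammatory. Viability and morphology also assessed.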

Question: With O=C1CCC(N2C(=O)c3cccc([N+](=O)[O-])c3C2=O)C(=O)N1 (stereo not shown) [Compound 5] as the molecule, how does the Viability (RAW 264.7 cells; 1 μM) read?
Answer: The Viability was “NS”.

Question: And the Viability (RAW 264.7 cells; 10 μM)?
Answer: Its Viability is “NS”.

Question: And the Viability (RAW 264.7 cells; 30 μM)?
Answer: Its Viability is “NS”.

Question: And the Viability (RAW 264.7 cells; 60 μM)?
Answer: The Viability was “NS”.

Question: And the Viability (RAW 264.7 cells; 100 μM)?
Answer: Its Viability is “NS”.

Question: What about the minimal effective concentration [1] of the same molecule?
Answer: The minimal effective concentration was 10 µg/mL.

Question: What about the “mpo:GFP inflammation n (survived/tested)” value [1] of the same molecule?
Answer: Its value is 28/28.

Question: With O=C1NC(=S)CCC1N1C(=O)c2cccc([N+](=O)[O-])c2C1=O (stereo not shown) [Compound 7, 2-(2-Oxo-6-thioxo-3-piperidinyl)-4-nitro-1H-isoindole-1,3(2H)-dione] as the molecule, how does the Viability (RAW 264.7 cells; 1 μM) read?
Answer: Its Viability is “NS”.

Question: And the Viability (RAW 264.7 cells; 10 μM)?
Answer: Its Viability is “NS”.

Question: And the Viability (RAW 264.7 cells; 30 μM)?
Answer: Its Viability is “NS”.

Question: And the Viability (RAW 264.7 cells; 60 μM)?
Answer: Its Viability is “NS”.

Question: And the Viability (RAW 264.7 cells; 100 μM)?
Answer: Its Viability is “+”.

Question: And the minimal effective concentration [1]?
Answer: The minimal effective concentration was 10 µg/mL.

Question: What about the “mpo:GFP inflammation n (survived/tested)” value [1] of the same molecule?
Answer: Its value is 29/29.

Question: How did the Viability (RAW 264.7 cells; 3 μM) turn out when Nc1cccc2c1CN(C1CCC(=O)NC1=O)C2=S (stereo not shown) [Compound 29] was run?
Answer: Its Viability is “−”.

Question: And the Viability (RAW 264.7 cells; 10 μM)?
Answer: The Viability was “−”.

Question: What about the Viability (RAW 264.7 cells; 30 μM) of the same molecule?
Answer: The Viability was “−”.

Question: What about the minimal effective concentration [1] of the same molecule?
Answer: The minimal effective concentration was 5 µg/mL.

Question: And the “mpo:GFP inflammation n (survived/tested)” value [1]?
Answer: Its value is 2/10.

Question: Nc1cccc2c1CN(C13CC4CC(CC(C4)C1)C3)C2=O [Compound 77, 2,3-Dihydro-4-amino-2-(tricyclo[3.3.1.1^3,7]dec-1-yl)-1H-isoindol-1-one] was tested. Which Viability (RAW 264.7 cells; 1 μM) did it give?
Answer: The Viability was “NS”.

Question: And the Viability (RAW 264.7 cells; 10 μM)?
Answer: The Viability was “NS”.

Question: And the Viability (RAW 264.7 cells; 30 μM)?
Answer: Its Viability is “NS”.

Question: And the minimal effective concentration [1]?
Answer: The minimal effective concentration was 200 µg/mL.

Question: What about the “mpo:GFP inflammation n (survived/tested)” value [1] of the same molecule?
Answer: The value was 5/21.

Question: With CC(N1Cc2c(N)cccc2C1=O)C12CC3CC(CC(C3)C1)C2 (stereo not shown) [Compound 81] as the molecule, how does the Viability (RAW 264.7 cells; 1 μM) read?
Answer: Its Viability is “NS”.

Question: What about the Viability (RAW 264.7 cells; 10 μM) of the same molecule?
Answer: The Viability was “NS”.

Question: And the Viability (RAW 264.7 cells; 30 μM)?
Answer: Its Viability is “NS”.

Question: And the minimal effective concentration [1]?
Answer: The minimal effective concentration was 50 µg/mL.

Question: And the “mpo:GFP inflammation n (survived/tested)” value [1]?
Answer: The value was 9/21.

Question: For O=C1c2ccccc2CN1C12CC3CC(CC(O)(C3)C1)C2 [Compound 86, 2,3-Dihydro-2-(tricyclo[3.3.1.1^3,7]dec-1-hydroxy-3-yl)-1H-isoindol-1-one], which Viability (RAW 264.7 cells; 1 μM) is on record?
Answer: Its Viability is “NS”.

Question: And the Viability (RAW 264.7 cells; 10 μM)?
Answer: The Viability was “NS”.

Question: And the Viability (RAW 264.7 cells; 30 μM)?
Answer: The Viability was “NS”.

Question: And the minimal effective concentration [1]?
Answer: Its minimal effective concentration is 100 µg/mL.

Question: And the “mpo:GFP inflammation n (survived/tested)” value [1]?
Answer: The value was 14/19.
